Assay results taken from ChEMBL document CHEMBL3045721, “Fungicidal Activity of New Diphenylphosphinic Amide Derivatives” (Biosci Biotechnol Biochem, 1992).

Legend:
[1] = tested on: Pseudoperonospora cubensis; test: Fungicidal activity against Pseudoperonospora cubensis administered through preventive foliar spraying of compound at 25 ppm 1 day before fungal inoculation on cucumber plants assessed as prevention of cucumber downy mildew measured 6 days after inoculation under greenhouse conditions; assay type: functional
[2] = tested on: Pseudoperonospora cubensis; test: Fungicidal activity against Pseudoperonospora cubensis administered through preventive foliar spraying of compound at 100 ppm 1 day before fungal inoculation on cucumber plants assessed as prevention of cucumber downy mildew measured 6 days after inoculation under greenhouse conditions; assay type: functional
[3] = tested on: Cucumis sativus; test: Toxicity against Pseudoperonospora cubensis infected Cucumis sativus (cucumber) plants administered through preventive foliar spraying of compound at 25 to 100 ppm 1 day before fungal inoculation on cucumber plants measured 6 days after inoculation under greenhouse conditions; assay type: organism-based; conditions: in vivo, other, 144 h
[4] = tested on: Cucumis sativus; test: Toxicity against Pseudoperonospora cubensis infected Cucumis sativus (cucumber) plants administered through preventive foliar spraying of compound at 100 ppm 5 days before fungal inoculation on cucumber plants measured 6 days after inoculation under field test conditions; assay type: organism-based; conditions: in vivo, other, 144 h
[5] = tested on: Pseudoperonospora cubensis; test: Fungicidal activity against Pseudoperonospora cubensis administered through preventive foliar spraying of compound at 100 ppm 5 days before fungal inoculation on cucumber plants assessed as prevention of cucumber downy mildew measured 6 days after inoculation under field test conditions; assay type: functional

Structure (SMILES): CCSP(=NP(=O)(c1ccccc1)c1ccccc1)(c1ccccc1)c1ccccc1
- Activity [1]: 43%
- Activity [2]: 82%
- Activity [3]: Non-toxic

Structure (SMILES): CSP(=NP(=S)(c1ccccc1)c1ccccc1)(c1ccccc1)c1ccccc1
- Activity [1]: 50%
- Activity [2]: 82%
- Activity [3]: Non-toxic

Structure (SMILES): O=C(CSP(=NP(=O)(c1ccccc1)c1ccccc1)(c1ccccc1)c1ccccc1)Nc1ccccc1
- Activity [1]: 75%
- Activity [2]: 91%
- Activity [3]: Non-toxic

Structure (SMILES): CCOC(=O)CSP(=NP(=O)(c1ccccc1)c1ccccc1)(c1ccccc1)c1ccccc1
- Activity [1]: 77%
- Activity [2]: 92%
- Activity [3]: Non-toxic

Structure (SMILES): O=P(N=P(SCc1ccccc1)(c1ccccc1)c1ccccc1)(c1ccccc1)c1ccccc1
- Activity [4]: Non-toxic
- Activity [1]: 86%
- Activity [5]: 88%
- Activity [2]: 100%
- Activity [3]: Non-toxic

Structure (SMILES): O=C(CSP(=NP(=O)(c1ccccc1)c1ccccc1)(c1ccccc1)c1ccccc1)NCc1ccccc1
- Activity [1]: 76%
- Activity [2]: 93%
- Activity [3]: Non-toxic

Structure (SMILES): CCOC(=O)C(C)SP(=NP(=O)(c1ccccc1)c1ccccc1)(c1ccccc1)c1ccccc1 (stereo unspecified)
- Activity [1]: 76%
- Activity [2]: 90%
- Activity [3]: Non-toxic

Structure (SMILES): N#CCSP(=NP(=O)(c1ccccc1)c1ccccc1)(c1ccccc1)c1ccccc1
- Activity [1]: 74%
- Activity [2]: 89%
- Activity [3]: Non-toxic

Structure (SMILES): CCSP(=NP(=S)(c1ccccc1)c1ccccc1)(c1ccccc1)c1ccccc1
- Activity [1]: 47%
- Activity [2]: 79%
- Activity [3]: Non-toxic

Structure (SMILES): CCOC(=O)C(C)SP(=NP(=S)(c1ccccc1)c1ccccc1)(c1ccccc1)c1ccccc1 (stereo unspecified)
- Activity [1]: 70%
- Activity [2]: 85%
- Activity [3]: Non-toxic

Structure (SMILES): CSP(=NP(=O)(c1ccccc1)c1ccccc1)(c1ccccc1)c1ccccc1
- Activity [1]: 41%
- Activity [2]: 80%
- Activity [3]: Non-toxic

Structure (SMILES): C/C=C/CSP(=NP(=O)(c1ccccc1)c1ccccc1)(c1ccccc1)c1ccccc1
- Activity [1]: 40%
- Activity [2]: 79%
- Activity [3]: Non-toxic

Structure (SMILES): O=C(CSP(=NP(=S)(c1ccccc1)c1ccccc1)(c1ccccc1)c1ccccc1)NCc1ccccc1
- Activity [1]: 73%
- Activity [2]: 87%
- Activity [3]: Non-toxic

Structure (SMILES): S=P(N=P(SCc1ccccc1)(c1ccccc1)c1ccccc1)(c1ccccc1)c1ccccc1
- Activity [4]: Non-toxic
- Activity [1]: 88%
- Activity [5]: 91%
- Activity [2]: 100%
- Activity [3]: Non-toxic
